Experimental data from BindingDB's records for doi:10.1021/jm101144f (Dana-Farber Cancer Institute, 2010).

Assay: Inhibition of PI3Kalpha in human PC3 cells expressing Akt1 S473D mutant assessed as phosphorylation of Akt Thr308 by immunoblotting

For `COCCC(=O)N1CCN(c2ccc(Nc3ccnc4ccc(-c5cnc6ccccc6c5)cc34)cc2C(F)(F)F)CC1` [1-(4-(4-([3,6'-biquinolin]-4'-ylamino)-2-(trifluoromethyl)phenyl)piperazin-1-yl)-3-methoxypropan-1-one], the IC50 was > 300 nM.
